The nature of series [1]: serum hormone levels in post-menopausal breast cancer patients. It counts as in vivo, post-menopausal women. The settings on record: versus pre-therapy, FIG. 2.
Excerpt: Five post-menopausal women having similar patient socio-demographic characteristics and ranging in age from 49 years to 56 years (median age 54) were selected for study. Each woman had been diagnosed with node-negative estrogen receptor and PR (Progesterone Receptor) positive BCa (Breast cancer), with tumor sizes ranging from 1.9 cm to 2.3 cm (median tumor size of 2.1 cm) and selected post-surgery (e.g., mastectomy, lumpectomy, or quadrantectomy for primary breast cancer) and post-chemotherapy. None had been subjected to previous attempts at hormone replacement therapy.
(§1) Each woman selected was subjected to four weeks of aromatase inhibitor therapy (anastrozole 1 mg (ARIMIDEX®) orally as a tablet once a day), and thereafter to an additional eight weeks of the same aromatase inhibitor therapy in combination with the oral administration of 40 mg of testosterone undecanoate as a tablet once a day. During this study, side effects associated with aromatase inhibitor treatment were measured at three separate times: prior to the first week of aromatase inhibitor therapy, following the fourth week of aromatase inhibitor therapy but before administration of testosterone undecanoate was begun, and following the eighth week of combined aromatase inhibitor and androgen replacement therapy.
The y axis is picomoles/L of serum.
The subject of series [2] is post-menopausal patients. Set-up: species or system post-menopausal women. The settings on record: in vivo. An excerpt:
An endocrine subscale (FACT-ES) to accompany a well-validated QOL measure called the FACT-B (Brady, M J., et al., Journal of Clinical. Oncology., Vol. 15, No. 3 (March 1997) pp. 974-986, which is incorporated in its entirety) was developed specifically for use in trials using drugs likely to cause endocrine related symptoms. See Fallowfield, L J, et al., Breast Cancer Research and Treatment, Vol. 55, No. 2, 1999, pp. 189-199, which is incorporated herein by reference in its entirety. Also, FACT-ES is a validated questionnaire designed to measure quality of life of women with breast cancer who are being treated with endocrine therapies. It consists of the FACT-B questionnaire plus an additional endocrine subscale. FACT-B (breast) consists of the FACT-G (general) QOL tool for cancer patients plus the Breast Cancer subscale. FACT-ES has been developed to measure QOL in patients receiving endocrine therapy for breast cancer. This instrument (FACT-ES) should, therefore, be sensitive to QOL changes in patients in this trial. […]
At the three assessment times during the study, the quality of life for each patient was assessed using standard Functional Assessment of Cancer Therapy-Endocrine Symptoms (FACT-ES) questionnaire (See FIG. 8), which questionnaire is a standard method for determining the occurrence and prominence of treatment-related symptoms and side-effects in breast cancer patients. […]

For series [3], the system named is post-menopausal patients. The following applies: in vivo.
Excerpt: The Western Ontario and McMaster Universities (WOMAC) Osteoarthritis Index™ consists of three VAS, one each pertaining to pain, joint stiffness and physical function. This then gives the WOMAC™ osteoarthritis index composite score.
Five post-menopausal women having similar patient socio-demographic characteristics and ranging in age from 49 years to 56 years (median age 54) were selected for study. […]
as §1
The y axis is a visual analogue pain scale. Specifically, the y axis indicates a percentage score of a subjective quantification of pain measured out of 100.
Series [4] deals with post-menopausal patients. The following applies: in vivo. This is another data set of the same source.
Excerpt: Another embodiment of this invention involves measuring cognitive function, including processing speed, working memory, visual memory, and verbal memory.
Five post-menopausal women having similar patient socio-demographic characteristics and ranging in age from 49 years to 56 years (median age 54) were selected for study. Each woman had been diagnosed with node-negative estrogen receptor and PR (Progesterone Receptor) positive BCa (Breast cancer), with tumor sizes ranging from 1.9 cm to 2.3 cm (median tumor size of 2.1 cm) and selected post-surgery (e.g., mastectomy, lumpectomy, or quadrantectomy for primary breast cancer) and post-chemotherapy. […]
Each woman selected was subjected to four weeks of aromatase inhibitor therapy (anastrozole 1 mg (ARIMIDEX®) orally as a tablet once a day), and thereafter to an additional eight weeks of the same aromatase inhibitor therapy in combination with the oral administration of 40 mg of testosterone undecanoate as a tablet once a day. During this study, side effects associated with aromatase inhibitor treatment were measured at three separate times: prior to the first week of aromatase inhibitor therapy, following the fourth week of aromatase inhibitor therapy but before administration of testosterone undecanoate was begun, and following the eighth week of combined aromatase inhibitor and androgen replacement therapy. […]
The conditions of series [5]: cited from earlier work.
The conditions of series [6]: cited from earlier work. The source holds these as a separate data set.

Regarding `CC(C)(C#N)c1cc(Cn2cncn2)cc(C(C)(C)C#N)c1` [Al only, anastrozole], the “average estradiol (E2) serum level” value in series [1] (following the fourth week of aromatase inhibitor therapy (anastrozole 1 mg once a day)) is reported as “drops significantly”. In addition, the “remainder of the serum hormone levels (T, FreeT, DHT)” value in series [1] (following the fourth week of aromatase inhibitor therapy) is reported as “relatively unchanged”. In addition, in the series on post-menopausal patients [2], the “quality of life as measured by FACT-ES questionnaires” value was “decreased”. The reported arthralgia symptoms entry in the series with post-menopausal patients [3] is reported as “elevated levels of arthralgia”. In the series on post-menopausal patients [4], the “cognitive function scores (processing speed, working memory, visual memory, verbal memory; mean Z score)” value was “decreased across all four ability types”.

On to `CCC1(c2ccc(N)cc2)CCC(=O)NC1=O` (stereo not shown) [aminoglutethimide], for which the tolerability result in series [5] (Cash, Brough et al 1967) is reported as “poorly tolerated”. In series [5] (limited the use of the drug), the adrenal suppression result was “marked adrenal suppression”.

In the case of `CCCCCCCCCCC(=O)O[C@H]1CC[C@H]2[C@@H]3CCC4=CC(=O)CC[C@]4(C)[C@H]3CC[C@]12C` [testosterone undecanoate], the oral bioavailability result in series [6] (by-passes the liver via the lymphatic system) was “orally bioavailable”.

With `C[C@]12CC[C@H]3[C@@H](CCC4=CC(=O)CC[C@@]43C)[C@@H]1CC[C@@H]2O` [testosterone], in series [6] (oral delivery), the “testosterone broken down in the liver as it is absorbed from the gut” value is given as 80-90%. The “testosterone broken down in the intestines by aromatase and other metabolic pathways” value in series [6] (oral) is given as “approximately 85%”.
